# Assay results from US5262417A, “Antibacterial quinolone compounds” (The Upjohn Company, priority 1991, dated 1993).
# Read-outs that look alike come from different tables or passages of the source.
# Key:
# Assay in all cases: Minimum inhibitory concentration (MIC) by agar dilution
# Format in all cases: cell-based
# Enterobacter cloacae = details: UC9382, 20 h, E. cloacae UC 9382, Table CI, read-out: Minimum Inhibitory Concentration
# Procedure: (§1) Briefly, MIC values are determined in unsupplemented Mueller Hinton Agar (MHA). The compounds tested are diluted serially into molten MHA at 47° C. The agar is poured into petri dishes and allowed to harden. The various bacteria used for testing are grown overnight on MHA at 35° C. and transferred to Trypticase soy broth (TSB) until a turbidity of 0.5 McFarland standard is obtained. The bacteria are diluted one to 20 in TSB and inoculated on the plates (1 μl using a Steers replicator).
# as §1, with “Compounds of this invention can also be tested for in vitro antimicrobial activity using standard testing procedures such as the determination of minimum inhibitory concentration (MIC) by agar dilution as described in "Methods for Dilution Antimicrobial Susceptibility Tests for Bacteria That Grow Aerobically" (MFT) published Jan. […] Briefly,” for “Briefly,”, “(1μl” for “(1 μl”
# [1] = test system: Acinetobacter calcoaceticus; details: Acinetobacter calcoaceticus, UC12170, 20 h; A. calcoaceticus UC 12170, Table CI; read-out: Minimum Inhibitory Concentration
# Procedure: as §1, with “The antibacterial activity of the compounds of Formula IC was determined by using standard testing procedures such as the determination of minimum inhibitory concentration (MIC) by agar dilution as described in "Methods for Dilution Antimicrobial Susceptibility Tests for Bacteria That Grow Aerobically" (MFT) published January 1983 by the National Committee for Clinical Laboratory Standards, 771 East Lancaster Avenue, Villanova, Pa. 19084, USA. Briefly,” for “Briefly,”
# (§2) Compounds of this invention can also be tested for in vitro antimicrobial activity using standard testing procedures such as the determination of minimum inhibitory concentration (MIC) by agar dilution as described in "Methods for Dilution Antimicrobial Susceptibility Tests for Bacteria That Grow Aerobically" (MFT) published Jan. 1983 by the National Committee for Clinical Laboratory Standards, 771 East Lancaster Avenue, Villanova, Penna. 19084, USA. Briefly, MIC values are determined in unsupplemented Mueller Hinton Agar (MHA). The compounds tested are diluted serially into molten MHA at 47° C. The agar is poured into petri dishes and allowed to harden. The various bacteria used for testing are grown overnight on MHA at 35° C. and transferred to Trypticase soy broth (TSB) until a turbidity of 0.5 McFarland standard is obtained. The bacteria are diluted one to 20 in TSB and inoculated on the plates (1μl using a Steers replicator). […] The MIC test results of selected of Formula B compounds of this invention are found in Tables B2-B9.
# Citerobacter freundii = details: Citrobacter freundii, UC3507, 20 h; C. freundii UC 3507, Table CI; read-out: Minimum Inhibitory Concentration
# Procedure: (§3) The antibacterial activity of the compounds of Formula IC was determined by using standard testing procedures such as the determination of minimum inhibitory concentration (MIC) by agar dilution as described in "Methods for Dilution Antimicrobial Susceptibility Tests for Bacteria That Grow Aerobically" (MFT) published January 1983 by the National Committee for Clinical Laboratory Standards, 771 East Lancaster Avenue, Villanova, Pa. 19084, USA. Briefly, MIC values are determined in unsupplemented Mueller Hinton Agar (MHA). The compounds tested are diluted serially into molten MHA at 47° C. The agar is poured into petri dishes and allowed to harden. The various bacteria used for testing are grown overnight on MHA at 35° C. and transferred to Trypticase soy broth (TSB) until a turbidity of 0.5 McFarland standard is obtained. The bacteria are diluted one to 20 in TSB and inoculated on the plates (1 μl using a Steers replicator).
# as §2
# Escherichia coli = details: Escherichia coli, read-out: Minimum Inhibitory Concentration
# Procedure: as §3, §2
# Klebsiella pneumoniae = details: UC12081, 20 h, K. pneumoniae UC 12081, Table CI, read-out: Minimum Inhibitory Concentration
# Procedure: as §3, §2
# Proteus penneri = details: Proteus penneri, UC9679, 20 h; P. penneri UC 9679, Table CI; read-out: Minimum Inhibitory Concentration
# Procedure: as §3, §2
# Pseudomonas aeruginosa = details: Pseudomonas aeruginosa, read-out: Minimum Inhibitory Concentration
# Procedure: as §3, §2
# Serratia marcescens = details: 20 h, S. marcescens, UC number not given, Table CI, read-out: Minimum Inhibitory Concentration
# Procedure: as §3, §2
# Staphylococcus aureus = details: Staphylococcus aureus, read-out: Minimum Inhibitory Concentration
# Procedure: as §3, §2
# [2] = test system: Staphylococcus epidermidis; details: 20 h, S. epidermidis 30031, Table CI, read-out: Minimum Inhibitory Concentration
# Procedure: as §3, §2
# Streptococcus faecalis = details: Enterococcus faecalis, UC9217, 20 h; S. faecalis UC 9217, Table CI; read-out: Minimum Inhibitory Concentration
# Procedure: as §3, §2
# Streptococcus pneumoniae = details: Streptococcus pneumoniae, UC41, 20 h; S. pneumoniae UC 41, Table CI; read-out: Minimum Inhibitory Concentration
# Procedure: as §3, §2
# Streptococcus pyogenes = details: Streptococcus pyogenes, UC152, 20 h; S. pyogenes UC 152, Table CI; read-out: Minimum Inhibitory Concentration
# Procedure: as §3, §2
# [3] = UC6674, 20 h, E. coli UC 6674, Table CI
# [4] = UC9451, 20 h, E. coli UC 9451, Table CI
# [5] = UC9855, 20 h, E. coli UC 9855, Table CI
# [6] = UC9952, 20 h, E. coli UC 9952, Table CI
# [7] = UC6676, 20 h, Ps. aeruginosa UC 6676, Table CI
# [8] = UC9191, 20 h, Ps. aeruginosa UC 9191, Table CI
# [9] = UC12120, 20 h, Ps. aeruginosa UC 12120, Table CI
# [10] = UC6685, 20 h, S. aureus UC 6685, Table CI
# [11] = UC9213, 20 h, S. aureus UC 9213, Table CI
# [12] = UC9218, 20 h, S. aureus UC 9218, Table CI
# [13] = UC9271, 20 h, S. aureus UC 9271, Table CI
SMILES,MIC (Enterobacter cloacae) [µg/mL],MIC [1] [µg/mL],MIC (Citerobacter freundii) [µg/mL],MIC (Escherichia coli; [3]) [µg/mL],MIC (Escherichia coli; [4]) [µg/mL],MIC (Escherichia coli; [5]) [µg/mL],MIC (Escherichia coli; [6]) [µg/mL],MIC (Klebsiella pneumoniae) [µg/mL],MIC (Proteus penneri) [µg/mL],MIC (Pseudomonas aeruginosa; [7]) [µg/mL],MIC (Pseudomonas aeruginosa; [8]) [µg/mL],MIC (Pseudomonas aeruginosa; [9]) [µg/mL],MIC (Serratia marcescens) [µg/mL],MIC (Staphylococcus aureus; [10]) [µg/mL],MIC (Staphylococcus aureus; [11]) [µg/mL],MIC (Staphylococcus aureus; [12]) [µg/mL],MIC (Staphylococcus aureus; [13]) [µg/mL],MIC [2] [µg/mL],MIC (Streptococcus faecalis) [µg/mL],MIC (Streptococcus pneumoniae) [µg/mL],also measured
C#CC(C)(C)n1cc(C(=O)O)c(=O)c2cc(F)c(N3CCC(N)C3)c(F)c21 (racemic) [B],0.25,0.5,0.125,0.125,0.125,0.25,0.125,0.25,1,2,2,1,1,0.25,0.5,0.5,0.5,0.25,2,2,MIC (Streptococcus pyogenes): 1 µg/mL
C#CCn1cc(C(=O)O)c(=O)c2cc(F)c(N3CCC(N)C3)c(F)c21 (racemic) [D],1,4,0.5,1,0.5,2,0.5,1,0.5,8,8,4,0.06,4,8,8,8,2,32,32,MIC (Streptococcus pyogenes): 16 µg/mL
